Assay [1] relates to panel of 31 vancomycin-resistant E. faecium strains. The assay is described as follows: MIC assay, MIC50/MIC90 over panel. In kind it is cell-based, Enterococcus faecium. To be noted: panel of 31 vancomycin-resistant E. faecium strains. How it is done: The antibacterial activity of the compounds was tested against a panel of bacteria, including Gram-positive bacteria (S. aureus ATCC29213, S. aureus USA300, S. aureus LIM-2, NR-45881, S. aureus HIP13419, NR-46413, E. faecium E155, E. faecium E7314, E. faecium E980, E. faecalis E1246, E. faecalis E7406 and S. pneumonia 153). The antibacterial activity of the compounds was further tested against S. aureus NY-155, NR-46236, S. aureus HIP12864, NR-46074, S. aureus 880 (BR-VRSA), NR-49120, E. faecalis E1246, E. faecalis E7604, as well as some Gram-negative bacteria (Escherichia coli and Klebsiella pneumoniae). Minimum inhibitory concentrations (MICs) in μg/mL were performed according to the CLSI guidelines. From glycerol stocks, bacterial strains were cultured on blood agar plates and incubated at 37° C. for 18 h. A single colony was transferred to tryptic soy broth (TSB) with 0.002% polysorbate 80 (p80). For the Enterococcus, VISA and VRSA strains, the cultures were grown at 37° C. until the optical density of the suspension reached a level equivalent to the 0.5 McFarland standard. The bacterial suspensions were diluted in TSB with 0.002% p80 to reach a bacterial cell density of 10^6 CFU/mL. In case of the other (vancomycin-sensitive) S. aureus strains, the direct colony suspension method was used. For these strains, after transfer of the colonies to TSB with 0.002% p80, they were immediately diluted to 10^6 CFU/mL, instead of incubated prior to this dilution. In the case of S. pneumonia, direct colony suspension was used by immediately suspending multiple colonies from fresh blood agar plates in TSB+0.002% p80 to an OD600 of 0.5 and subsequent dilution to 10^6 CFU mL^−1 in TSB+0.002% p80+5% lysed horse blood. Antibiotic dilutions for this strains were also made in TSB+0.002% p80+5% lysed horse blood. Both agar and microplates containing S. pneumonia were incubated at 37° C. with 5% CO2 for 24 h with constant shaking (600 rpm). […] The cultures were grown to exponential phase (OD600=0.5) at 37° C. […] In polypropylene 96-well microtiter plates, test compounds were added in biological triplicates and serial diluted 2-fold by transfer and mixing from one well to the next to achieve a final volume of 50 μL per well. An equal volume of bacterial suspension (10^6 CFU mL^−1) was added to the wells. The plates were sealed with breathable membranes and incubated at 37° C. for 24 h with constant shaking (600 rpm). In polypropylene microtiter plates, 100 μL of the test compounds was added to the first row in biological triplicates, and 50 μL of media was added to the other wells. The compounds were subjected to serial dilution by transfer and mixing of 50 μL from one well to the next. Subsequently, 50 μL of bacterial suspension (10^6 CFU/mL) was added to the wells. The plates were sealed with breathable membranes and incubated at 37° C. for 24 h with constant shaking (600 rpm). Positive growth control consisted of wells with bacterial suspension and without antibiotic. Negative growth control consisted of solely media without bacterial suspension or antibiotic. The MICs were determined from the median of a minimum of triplicates.

The subject of the next assay is E. faecium E2359. The assay is described as follows: MIC assay. In kind it is cell-based, Enterococcus faecium. To be noted: E. faecium E2359, VanB.
The next assay deals with E. faecium E1441. Briefly: MIC assay. In kind it is cell-based, Enterococcus faecium. To be noted: E. faecium E1441, VanA.
In a further assay the test system is E. faecium E8237. The assay is described as follows: MIC assay. Type of assay: cell-based, Enterococcus faecium. Particulars: E. faecium E8237, VanA. An outline of the steps: (§1)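 Twofold serial dilutions, biological triplicates, combined with an equal volume of bacterial suspension (10^6 CFU/mL) in TSB/0.002% polysorbate 80. Incubation lasted 24 h at 37 °C, shaking at 600 rpm. Median of replicates gives MIC.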

A further assay concerns E. faecium E7413. The assay is described as follows: MIC assay. Type of assay: cell-based, Enterococcus faecium. Particulars: E. faecium E7413, VanA. An outline of the steps:
as §1

The next assay relates to E. faecalis E1246. The assay is described as follows: MIC assay. In kind it is cell-based, Enterococcus faecalis. An outline of the steps: as §1
The test system of assay [2] is S. aureus HIP13419, NR-46413. Briefly: microbe, parasite or virus in culture. Type of assay: cell-based, Staphylococcus aureus. The essentials: as §1
A further assay has as its system S. aureus USA300. Briefly: microbe, parasite or virus in culture. Type of assay: cell-based, Staphylococcus aureus. The essentials:
as §1

In the next assay the test system is E. faecium E7312. Briefly: MIC assay. In kind it is cell-based, Enterococcus faecium. Particulars: E. faecium E7312, VanA.
For a further assay, the system named is E. faecium E0338. Briefly: MIC assay. In kind it is cell-based, Enterococcus faecium. Particulars: E. faecium E0338, VanA.
Assay [3] concerns Klebsiella pneumoniae ATCC 13883. The assay is described as follows: MIC assay. Type of assay: cell-based. An outline of the steps:
as §1

The test system of assay [4] is Klebsiella pneumoniae JS265. The assay is described as follows: MIC assay. In kind it is cell-based. The essentials: as §1
The next assay concerns Escherichia coli W3110. The assay is described as follows: MIC assay. Type of assay: cell-based. An outline of the steps: as §1
The next assay concerns S. pneumoniae 153. Briefly: MIC assay. Type of assay: cell-based. The essentials:
as §1

Assay [5] concerns Escherichia coli ATCC 35218. The assay is described as follows: MIC assay. Type of assay: cell-based. The essentials: as §1
Assay [6] deals with Klebsiella pneumoniae ATCC 27736. Briefly: MIC assay. In kind it is cell-based. The essentials:
as §1

The test system of assay [7] is Escherichia coli ATCC 25922. Briefly: MIC assay. In kind it is cell-based. An outline of the steps:
as §1

Setting [8] is: E. faecalis E1246 VRE (VanA), Table 7.
Where [9] appears, read: E. faecalis E1246 VRE (vanA), Table 9.
Setting [10] is: S. aureus HIP13419, NR-46413 VRSA.
Setting [11] is: S. pneumoniae 153, TSB+0.002% p80+5% lysed horse blood.

Structures are written as SMILES. Values after ≈ are worked out from the molar mass of the structure shown.

Usually MIC50 stands for an inhibitory concentration at the 50% level, which refers to growth in some studies and to a panel of isolates in others. Higher therefore signals lower susceptibility. One may read the MIC90 as an inhibitory concentration at the 90% level, which refers to growth in some studies and to a panel of isolates in others. For `CCCCCCCNC(N)=Nc1ccc(CN[C@@]2(C)C[C@H](O[C@H]3[C@H](Oc4c5cc6cc4Oc4ccc(cc4Cl)[C@@H](O)[C@@H](NC(=O)[C@@H](CC(C)C)NC)C(=O)N[C@@H](CC(N)=O)C(=O)N[C@H]6C(=O)N[C@H]4C(=O)N[C@H](C(=O)N[C@H](C(=O)O)c6cc(O)cc(O)c6-c6cc4ccc6O)[C@H](O)c4ccc(c(Cl)c4)O5)O[C@H](CO)[C@@H](O)[C@@H]3O)O[C@@H](C)[C@H]2O)cc1` [Compound 5], the MIC50 in assay [1] is 1 µg/mL (≈ 0.59 µM). This compound yielded an MIC90 in [1] of 8 µg/mL (≈ 4.72 µM). Also, the MIC in the assay with E. faecium E2359 is no more than 8 ng/mL; against E. faecium E1441, 4 µg/mL (≈ 2.36 µM); in the assay with E. faecium E8237 it was 8 µg/mL (≈ 4.72 µM); in the assay on E. faecium E7413, 8 µg/mL (≈ 4.72 µM); in the assay on E. faecalis E1246 (setting [8]) it was 16 µg/mL (≈ 9.44 µM); against E. faecalis E1246 (setting [9]), 16 µg/mL (≈ 9.44 µM). In addition, the MIC is 1 µg/mL (≈ 0.59 µM) in [2] (setting [10]); 0.016 µg/mL in the assay on S. aureus USA300 (MRSA USA300, TSB + 0.002% p80); 0.01562 µg/mL (≈ 0.00922 µM) in the assay on S. aureus USA300 (S. aureus USA300 MRSA); 0.25 µg/mL (≈ 0.148 µM) in the assay on E. faecium E7312; 4 µg/mL (≈ 2.36 µM) in the assay with E. faecium E0338; greater than 128 µg/mL in assay [3]. For the same compound, the MIC in assay [4] was greater than 128 µg/mL; in the assay with Escherichia coli W3110, greater than 128 µg/mL; with S. pneumoniae 153 (setting [11]), no more than 8 ng/mL; in assay [5] it was greater than 128 µg/mL; in [6], greater than 128 µg/mL; in assay [7], greater than 128 µg/mL.

In assay [1], `CCCCCCCCNC(N)=Nc1ccc(CN[C@@]2(C)C[C@H](O[C@H]3[C@H](Oc4c5cc6cc4Oc4ccc(cc4Cl)[C@@H](O)[C@@H](NC(=O)[C@@H](CC(C)C)NC)C(=O)N[C@@H](CC(N)=O)C(=O)N[C@H]6C(=O)N[C@H]4C(=O)N[C@H](C(=O)N[C@H](C(=O)O)c6cc(O)cc(O)c6-c6cc4ccc6O)[C@H](O)c4ccc(c(Cl)c4)O5)O[C@H](CO)[C@@H](O)[C@@H]3O)O[C@@H](C)[C@H]2O)cc1` [Compound 6] came in with an MIC50 of 0.5 µg/mL (≈ 0.293 µM). This compound returned an MIC90 in assay [1] of 4 µg/mL (≈ 2.34 µM). Moreover, the MIC against E. faecium E2359 was no more than 8 ng/mL; in the assay with E. faecium E1441, 2 µg/mL (≈ 1.17 µM); with E. faecium E8237, 2 µg/mL (≈ 1.17 µM); against E. faecium E7413 it was 4 µg/mL (≈ 2.34 µM); against E. faecalis E1246 (setting [8]), 8 µg/mL (≈ 4.68 µM); against E. faecalis E1246 (setting [9]) it was 8 µg/mL (≈ 4.68 µM). For the same compound, the MIC in [2] (setting [10]) is 0.5 µg/mL (≈ 0.293 µM); in the assay on S. aureus USA300 (MRSA USA300, TSB + 0.002% p80), no more than 0.008 µg/mL; in the assay with S. aureus USA300 (S. aureus USA300 MRSA), no more than 0.007812 µg/mL; with E. faecium E7312 it was 0.063 µg/mL (≈ 0.0369 µM); against E. faecium E0338, 2 µg/mL (≈ 1.17 µM); in assay [3], greater than 128 µg/mL. For the same compound, the MIC in assay [4] was greater than 128 µg/mL; against Escherichia coli W3110 it was greater than 128 µg/mL; in the assay with S. pneumoniae 153 (setting [11]), no more than 8 ng/mL; in assay [5] it was greater than 128 µg/mL; in assay [6], greater than 128 µg/mL; in [7] it was greater than 128 µg/mL.

Compound `CCCCCCCCCNC(N)=Nc1ccc(CN[C@@]2(C)C[C@H](O[C@H]3[C@H](Oc4c5cc6cc4Oc4ccc(cc4Cl)[C@@H](O)[C@@H](NC(=O)[C@@H](CC(C)C)NC)C(=O)N[C@@H](CC(N)=O)C(=O)N[C@H]6C(=O)N[C@H]4C(=O)N[C@H](C(=O)N[C@H](C(=O)O)c6cc(O)cc(O)c6-c6cc4ccc6O)[C@H](O)c4ccc(c(Cl)c4)O5)O[C@H](CO)[C@@H](O)[C@@H]3O)O[C@@H](C)[C@H]2O)cc1` [Compound 7] displayed an MIC50 in [1] of 0.125 µg/mL (≈ 0.0726 µM). The MIC90 in assay [1] was determined as 1 µg/mL (≈ 0.58 µM). Moreover, the MIC against E. faecium E2359 is no more than 8 ng/mL; in the assay with E. faecium E1441 it was 1 µg/mL (≈ 0.58 µM); with E. faecium E8237 it was 1 µg/mL (≈ 0.58 µM); against E. faecium E7413, 2 µg/mL (≈ 1.16 µM); with E. faecalis E1246 (setting [8]), 2 µg/mL (≈ 1.16 µM); against E. faecalis E1246 (setting [9]), 2 µg/mL (≈ 1.16 µM). Besides, the MIC in assay [2] (setting [10]) was 0.125 µg/mL (≈ 0.0726 µM); with S. aureus USA300 (MRSA USA300, TSB + 0.002% p80) it was no more than 0.008 µg/mL; with S. aureus USA300 (S. aureus USA300 MRSA) it was no more than 0.007812 µg/mL; against E. faecium E7312 it was 0.031 µg/mL (≈ 0.018 µM); in the assay on E. faecium E0338, 0.5 µg/mL (≈ 0.29 µM); in assay [3], greater than 128 µg/mL. In addition, the MIC in [4] was greater than 128 µg/mL; with Escherichia coli W3110, greater than 128 µg/mL; in the assay with S. pneumoniae 153 (setting [11]), no more than 8 ng/mL; in assay [5], greater than 128 µg/mL; in [6], greater than 128 µg/mL; in assay [7] it was greater than 128 µg/mL.

For `CN[C@H](CC(C)C)C(=O)N[C@H]1C(=O)N[C@@H](CC(N)=O)C(=O)N[C@H]2C(=O)N[C@H]3C(=O)N[C@H](C(=O)N[C@H](C(=O)O)c4cc(O)cc(O)c4-c4cc3ccc4O)[C@H](O[C@H]3C[C@](C)(N)[C@@H](O)[C@H](C)O3)c3ccc(c(Cl)c3)Oc3cc2cc(c3O[C@@H]2O[C@H](CO)[C@@H](O)[C@H](O)[C@H]2O[C@H]2C[C@](C)(NCc3ccc(-c4ccc(Cl)cc4)cc3)[C@@H](O)[C@H](C)O2)Oc2ccc(cc2Cl)[C@H]1O` [Oritavancin], the MIC against E. faecalis E1246 (setting [9]) is 1 µg/mL (≈ 0.558 µM); in the assay with E. faecalis E1246 (Enterococcus faecalis, VRE), 1 µg/mL (≈ 0.558 µM); in [2] (Staphylococcus aureus, VRSA), 0.25 µg/mL (≈ 0.139 µM); in the assay on S. aureus USA300 (Staphylococcus aureus, MRSA / USA300), 0.0625 µg/mL (≈ 0.0349 µM); in the assay with S. pneumoniae 153 (Streptococcus pneumoniae, 153) it was no more than 8 ng/mL.

The record behind these values is patent US20230174584A1, “Antibiotic Compounds” (priority 2019, published 2023).
